PMC9029893 (International Journal of Molecular Sciences, 2022)

Key:
HUVEC cells [1] = assay: Glucose utilization assay (2-NBDG uptake); assay type: cell-based, human; details: 24 h, then insulin and 2-NBDG
Protocol: HUVEC were seeded at a density of 20,000 cells per well in 48-well plates, and were cultured in standard conditions for 24 h (medium EGM-2; volume 0.2 mL). Following this, compounds 1–8 were added at concentrations of 0.1 and 0.3 mM, and the HUVECs were incubated for another 24 h. Cells treated with ᴅ-glucose (final concentration in a sample 0.1 mM) were used as positive controls. On the following day, the cells were rinsed with PBS (Biomed Lublin, Lublin, Poland) and cultured for two hours in glucose-free DMEM medium supplemented with 1% BSA (bovine serum albumin, Sigma, St. Louis, MO, USA). Then, the cells were co-treated with insulin (final concentration 0.0001 mM) for 30 min. Afterwards, the medium was discarded and the cells were treated with 2-NBDG (final concentration 0.05 mM) for 30 min, followed by removal of the solutions of each well. The cells were washed twice with 100 µL PBS, and lysed using 1% Triton X-100 solution in PBS. The fluorescence was recorded using a microplate reader (Biotek, Instruments, Winooski, VT, USA) at 480/530 nm.
The concentration of intracellular 2-NBDG was calculated using a calibration curve obtained using 2-NBDG at concentrations ranging from 0.0001 to 0.025 mM in lysis buffer. The results are presented as mean ± SD, n = 4–6. The coefficient of variation for the assay was calculated (CV = 2.2%, n = 8).

HUVEC cells [2] = assay: HUVEC integrity in RTCA-DP system (normalized cell index); assay type: cell-based, human
Protocol: The effects of sulfonamides 1–8 on the integrity and barrier properties of HUVEC were examined in real-time using a cell electric impedance monitoring system (Real-Time Cell Analyzer; Roche & ACEA Biosciences, Santa Clara, CA, USA), which is based on tracking electrical impedance signals. Any changes in cell status, adhesion, and morphology are expressed by parameter Cell Index (CI). The experimental protocol has been described previously. Briefly, the cells were seeded at a density of 15,000 cells per well on E-16 plates (Roche & ACEA Biosciences, Santa Clara, CA, USA), and cultured until the cells achieved plateau phase. Then, the medium was discarded from each well, and the solutions of the test compounds dissolved in cell culturing medium (100 μL) or pure medium (100 μL, control) were added. The measurements were then carried out for 48 h. The results are presented as mean ± SD of ‘normalized cell index’ (nCI), which is calculated by the division of a CI value at a certain time point by the CI value at a reference time point. The experiments were conducted in multiplicate (n = 4–6). The method was validated and the coefficient of variability (CV) was calculated as 9.17%–15.2%, depending on the measured time point (n = 6).

HUVEC cells [3] = assay: WST-1 cell viability assay, HUVEC; details: Homo sapiens, HUVEC, 24 h, read-out: Viability-IC50, HUVEC cells
Protocol: (§1) HUVEC and AoSMC viability were tested using the WST-1 cell viability assay (Takara Bio Europe, Saint-Germain-en-Laye, France). […] Briefly, HUVEC and AoSMC were seeded at densities of 7500 and 5000 cells per well on 96-well plates. The cells were cultivated for up to 24 h to achieve 70% confluency, and subsequently treated with tested compounds diluted in medium (1 + 9; v = 100 μL) or pure medium (control). The plates were incubated at 37 °C (5% CO2) for the next 24 h. Then, the cells were rinsed with 100 μL culture medium, and WST-1 reagent diluted in medium (100 μL) was added; the plates were then incubated again (37 °C, 5% CO2) for another 90 min. The absorbance was measured at 450 nm (iMARK, Bio-Rad, Hercules, CA, USA). The experiments were performed in multiplicate (n = 8) and the results were presented as mean ± SD. The cell viability was expressed as a percentage of the control samples, which constituted 100% viability. […] The variability coefficient of the method was estimated (CV(HUVEC) = 8.94%, n = 8; CV(AoSMC) = 5.84%, n = 10).

AoSMC cells [4] = assay: WST-1 cell viability assay, AoSMC; details: Homo sapiens, 24 h, read-out: Viability-IC50, AoSMC cells
Protocol: as §1

HUVEC cells [5] = assay: HUVEC migration, wound-healing assay (JuLI Stage); assay type: cell-based, human
Protocol: The effects of compounds 1–5 on HUVEC migration were determined using the JuLI™ Stage system (NanoEntek, Seoul, Korea): a real-time cell history recorder allowing for live cell imaging and analysis. The procedure for the migration experiments has been published elsewhere in more detail. Concisely, HUVECs were seeded at a density of 10,000 cells per well on 96-well plates and incubated at standard conditions for 24 h. Following this, a wound was made with a scratcher (NanoEntek, Seoul, Korea). The cells were then rinsed with 100 μL of fresh EGM2 medium, and treated with biguanides 1–5 at the concentrations of 0.3 and 1.0 mM. The cells were incubated and monitored continuously every 10 min for 36 h at 37 °C, 5% CO2. Analysis of obtained images of cell migration, and measurements of the width of the scratch area were performed using dedicated software (NanoEntek, Seoul, Korea). The results were presented as mean ± SD, n = 4–8. The CV for the method was estimated as 14.2–24.4%, depending on the time point (n = 8).

HUVEC cells [6] = details: cited from earlier work
AoSMC cells [7] = details: cited from earlier work
HUVEC cells [8] = details: 0.006–1.5 mM; cited from earlier work
[9] = system: tissue plasminogen activator (t-PA) release from HUVEC; details: cited from earlier work
[10] = system: clot formation and fibrinolysis in human citrate plasma; details: over the entire concentration range; cited from earlier work

| Structure (SMILES) | Glucose uptake (intracellular 2-NBDG) (HUVEC cells [1]; 0.1 mM) [mM] | Glucose uptake (intracellular 2-NBDG) (HUVEC cells [1]; 0.3 mM) [mM] | normalized Cell Index (nCI) (HUVEC cells [2]; 0.3 mM, 3 hours) | normalized Cell Index (nCI) (HUVEC cells [2]; 0.3 mM, 6 hours) | normalized Cell Index (nCI) (HUVEC cells [2]; 0.3 mM, 12 hours) | normalized Cell Index (nCI) (HUVEC cells [2]; 0.3 mM, 24 hours) | normalized Cell Index (nCI) (HUVEC cells [2]; 0.3 mM, 36 hours) | normalized Cell Index (nCI) (HUVEC cells [2]; 1.0 mM, 3 hours) | normalized Cell Index (nCI) (HUVEC cells [2]; 1.0 mM, 6 hours) | normalized Cell Index (nCI) (HUVEC cells [2]; 1.0 mM, 12 hours) | normalized Cell Index (nCI) (HUVEC cells [2]; 1.0 mM, 24 hours) | normalized Cell Index (nCI) (HUVEC cells [2]; 1.0 mM, 36 hours) | IC50 (HUVEC cells [3]) [µM] | IC50 (AoSMC cells [4]) [µM] | other results |
| --- | --- | --- | --- | --- | --- | --- | --- | --- | --- | --- | --- | --- | --- | --- | --- |
| CN(C)C(=N)N=C(N)NS(=O)(=O)c1ccccc1C#N [Compound 6] | 0.0128 ± 0.0007 | 0.0129 ± 0.0007 | 0.317 ± 0.050 | 0.424 ± 0.053 | 0.388 ± 0.07 | 0.280 ± 0.018 | 0.111 ± 0.026 | 0.010 ± 0.003 | 0.016 ± 0.005 | 0.019 ± 0.005 | 0.013 ± 0.003 | 0.009 ± 0.003 | 461 ± 130 | 1680 ± 210 |  |
| CN(C)C(=N)N=C(N)N [Metformin, dimethyl biguanide, reference compound] | 0.0146 ± 0.0009 | 0.0165 ± 0.0006 |  |  |  |  |  |  |  |  |  |  |  |  | wound width (HUVEC cells [5]; 0.3 mM, 6 hours): 570.1 ± 119.9 µm; wound width (HUVEC cells [5]; 0.3 mM, 12 hours): 467.8 ± 106.5 µm; wound width (HUVEC cells [5]; 0.3 mM, 18 hours): 412.1 ± 121.8 µm; wound width (HUVEC cells [5]; 0.3 mM, 24 hours): 405.0 ± 120.7 µm; wound width (HUVEC cells [5]; 0.3 mM, Start): 728.6 ± 62.5 µm; wound width (HUVEC cells [5]; 1.0 mM, 6 hours): 565.4 ± 31.5 µm; wound width (HUVEC cells [5]; 1.0 mM, 12 hours): 495.7 ± 20.0 µm; wound width (HUVEC cells [5]; 1.0 mM, 18 hours): 482.7 ± 10.0 µm; wound width (HUVEC cells [5]; 1.0 mM, 24 hours): 419.8 ± 42.3 µm; wound width (HUVEC cells [5]; 1.0 mM, Start): 670.4 ± 29.2 µm; effect on viability and morphology of HUVEC cells (HUVEC cells [6]): not affect; effect on viability and morphology of AoSMC cells (AoSMC cells [7]): not affect; effect on integrity and adherence of HUVEC cells (HUVEC cells [8]): not found to affect; effect on t-PA release [9]: significantly elevate; effect on overall potential of clot formation and fibrinolysis (CLAUC) [10]: did not affect |
| CN(C)C(=N)N=C(N)NS(=O)(=O)c1cccc(C#N)c1 [Compound 7] | 0.0131 ± 0.0013 | 0.0139 ± 0.001 | 0.283 ± 0.050 | 0.367 ± 0.027 | 0.333 ± 0.030 | 0.255 ± 0.26 | 0.094 ± 0.014 | 0.013 ± 0.004 | 0.018 ± 0.001 | 0.020 ± 0.001 | 0.016 ± 0.002 | 0.013 ± 0.003 | 304 ± 120 | 1890 ± 160 |  |
| CN(C)C(=N)N=C(N)NS(=O)(=O)c1ccc(C#N)cc1 [Compound 8] | 0.0131 ± 0.0009 | 0.0138 ± 0.0015 | 0.312 ± 0.087 | 0.461 ± 0.015 | 0.416 ± 0.062 | 0.321 ± 0.038 | 0.198 ± 0.055 | 0.006 ± 0.004 | 0.029 ± 0.006 | 0.021 ± 0.004 | 0.001 ± 0.001 | 0.001 ± 0.001 | 791 ± 130 | 1570 ± 140 |  |
| OC[C@H]1OC(O)[C@H](O)[C@@H](O)[C@@H]1O (stereo partly drawn) [D-glucose, reference compound] | 0.0014 ± 0.0001 |  |  |  |  |  |  |  |  |  |  |  |  |  |  |
